Assay results from PubChem BioAssay (NCI).
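Briefly, cells in 96-well plates were exposed to five compound concentrations for 48 h, and endpoints were estimated by linear interpolation. TGI denotes the concentration required for complete inhibition of growth.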

Tests used:
Experiment in all cases: DTP human tumour cell line panel, 48 h
786-0 renal = test system: 786-0 renal
A498 renal = test system: A498 renal
A549 NSCLC = test system: A549 NSCLC
ACHN renal = test system: ACHN renal
CAKI-1 renal = test system: CAKI-1 renal
CCRF-CEM leukemia = test system: CCRF-CEM leukemia
COLO 205 colon = test system: COLO 205 colon
DLD-1 colon = test system: DLD-1 colon
DMS 114 small cell lung = test system: DMS 114 small cell lung
DMS 273 small cell lung = test system: DMS 273 small cell lung
EKVX NSCLC = test system: EKVX NSCLC
HCC-2998 colon = test system: HCC-2998 colon
HCT-116 colon = test system: HCT-116 colon
HCT-15 colon = test system: HCT-15 colon
HL-60(TB) leukemia = test system: HL-60(TB) leukemia
HOP-18 NSCLC = test system: HOP-18 NSCLC
HOP-62 NSCLC = test system: HOP-62 NSCLC
HOP-92 NSCLC = test system: HOP-92 NSCLC
HT29 colon = test system: HT29 colon
IGROV1 ovarian = test system: IGROV1 ovarian
K-562 leukemia = test system: K-562 leukemia
KM12 colon = test system: KM12 colon
KM20L2 colon = test system: KM20L2 colon
LXFL 529 NSCLC = test system: LXFL 529 NSCLC
M14 melanoma = test system: M14 melanoma
M19-MEL melanoma = test system: M19-MEL melanoma
MALME-3M melanoma = test system: MALME-3M melanoma
MOLT-4 leukemia = test system: MOLT-4 leukemia
NCI-H226 lung = test system: NCI-H226 lung
NCI-H23 lung = test system: NCI-H23 lung
NCI-H460 lung = test system: NCI-H460 lung
OVCAR-3 ovarian = test system: OVCAR-3 ovarian
OVCAR-4 ovarian = test system: OVCAR-4 ovarian
OVCAR-5 ovarian = test system: OVCAR-5 ovarian
OVCAR-8 ovarian = test system: OVCAR-8 ovarian
RPMI-8226 leukemia = test system: RPMI-8226 leukemia
RXF-631 renal = test system: RXF-631 renal
SF-268 CNS = test system: SF-268 CNS
SF-295 CNS = test system: SF-295 CNS
SF-539 CNS = test system: SF-539 CNS
SK-MEL-28 melanoma = test system: SK-MEL-28 melanoma
SK-MEL-5 melanoma = test system: SK-MEL-5 melanoma
SK-OV-3 ovarian = test system: SK-OV-3 ovarian
SN12C renal = test system: SN12C renal
SNB-19 CNS = test system: SNB-19 CNS
SNB-75 CNS = test system: SNB-75 CNS
SNB-78 CNS = test system: SNB-78 CNS
SW-620 colon = test system: SW-620 colon
TK-10 renal = test system: TK-10 renal
U251 CNS = test system: U251 CNS
UACC-257 melanoma = test system: UACC-257 melanoma
UACC-62 melanoma = test system: UACC-62 melanoma
UO-31 renal = test system: UO-31 renal
LOX IMVI melanoma = test system: LOX IMVI melanoma
RXF 393 renal = test system: RXF 393 renal
SK-MEL-2 melanoma = test system: SK-MEL-2 melanoma

SMILES: Cc1cccc(Cl)c1NC(N)=S
- TGI (786-0 renal): 48.6 µM
- TGI (A498 renal): > 100 µM
- TGI (A549 NSCLC): > 100 µM
- TGI (ACHN renal): 82.5 µM
- TGI (CAKI-1 renal): > 100 µM
- TGI (CCRF-CEM leukemia): > 100 µM
- TGI (COLO 205 colon): > 100 µM
- TGI (DLD-1 colon): > 100 µM
- TGI (DMS 114 small cell lung): 82 µM
- TGI (DMS 273 small cell lung): > 100 µM
- TGI (EKVX NSCLC): > 100 µM
- TGI (HCC-2998 colon): > 100 µM
- TGI (HCT-116 colon): 35.9 µM
- TGI (HCT-15 colon): 37.1 µM
- TGI (HL-60(TB) leukemia): > 100 µM
- TGI (HOP-18 NSCLC): 98.6 µM
- TGI (HOP-62 NSCLC): > 100 µM
- TGI (HOP-92 NSCLC): > 100 µM
- TGI (HT29 colon): > 100 µM
- TGI (IGROV1 ovarian): > 100 µM
- TGI (K-562 leukemia): > 100 µM
- TGI (KM12 colon): > 100 µM
- TGI (KM20L2 colon): > 100 µM
- TGI (LXFL 529 NSCLC): > 100 µM
- TGI (M14 melanoma): > 100 µM
- TGI (M19-MEL melanoma): > 100 µM
- TGI (MALME-3M melanoma): > 100 µM
- TGI (MOLT-4 leukemia): > 100 µM
- TGI (NCI-H226 lung): > 100 µM
- TGI (NCI-H23 lung): > 100 µM
- TGI (NCI-H460 lung): > 100 µM
- TGI (OVCAR-3 ovarian): 78.6 µM
- TGI (OVCAR-4 ovarian): > 100 µM
- TGI (OVCAR-5 ovarian): > 100 µM
- TGI (OVCAR-8 ovarian): 79.8 µM
- TGI (RPMI-8226 leukemia): 58.8 µM
- TGI (RXF-631 renal): > 100 µM
- TGI (SF-268 CNS): > 100 µM
- TGI (SF-295 CNS): > 100 µM
- TGI (SF-539 CNS): > 100 µM
- TGI (SK-MEL-28 melanoma): > 100 µM
- TGI (SK-MEL-5 melanoma): > 100 µM
- TGI (SK-OV-3 ovarian): > 100 µM
- TGI (SN12C renal): > 100 µM
- TGI (SNB-19 CNS): > 100 µM
- TGI (SNB-75 CNS): > 100 µM
- TGI (SNB-78 CNS): > 100 µM
- TGI (SW-620 colon): 35.6 µM
- TGI (TK-10 renal): > 100 µM
- TGI (U251 CNS): 49.7 µM
- TGI (UACC-257 melanoma): > 100 µM
- TGI (UACC-62 melanoma): > 100 µM
- TGI (UO-31 renal): > 100 µM

SMILES: CN(C)CCNC(=O)c1cccc2ccc(-c3cccnc3)nc12
- TGI (786-0 renal): > 100 µM
- TGI (A498 renal): 8.22 µM
- TGI (A549 NSCLC): 32.3 µM
- TGI (ACHN renal): 23.2 µM
- TGI (CAKI-1 renal): 32.9 µM
- TGI (CCRF-CEM leukemia): > 100 µM
- TGI (COLO 205 colon): 13.6 µM
- TGI (DLD-1 colon): 60.4 µM
- TGI (DMS 114 small cell lung): 18.6 µM
- TGI (DMS 273 small cell lung): 13.1 µM
- TGI (EKVX NSCLC): 19.8 µM
- TGI (HCC-2998 colon): 18 µM
- TGI (HCT-116 colon): 13.1 µM
- TGI (HCT-15 colon): 17.4 µM
- TGI (HL-60(TB) leukemia): > 100 µM
- TGI (HOP-18 NSCLC): 62.9 µM
- TGI (HOP-62 NSCLC): 19.2 µM
- TGI (HOP-92 NSCLC): 14.4 µM
- TGI (HT29 colon): 31.9 µM
- TGI (IGROV1 ovarian): 25.6 µM
- TGI (K-562 leukemia): > 100 µM
- TGI (KM12 colon): 98.4 µM
- TGI (LOX IMVI melanoma): 15.1 µM
- TGI (M14 melanoma): 20.7 µM
- TGI (M19-MEL melanoma): 16.9 µM
- TGI (MALME-3M melanoma): 16.8 µM
- TGI (MOLT-4 leukemia): > 100 µM
- TGI (NCI-H226 lung): 22.2 µM
- TGI (NCI-H23 lung): 16.1 µM
- TGI (NCI-H460 lung): > 100 µM
- TGI (OVCAR-3 ovarian): 36.9 µM
- TGI (OVCAR-4 ovarian): 36.9 µM
- TGI (OVCAR-5 ovarian): 22.4 µM
- TGI (OVCAR-8 ovarian): > 100 µM
- TGI (RXF 393 renal): 19.5 µM
- TGI (RXF-631 renal): 23.1 µM
- TGI (SF-268 CNS): 26.3 µM
- TGI (SF-295 CNS): 24.1 µM
- TGI (SF-539 CNS): 23.7 µM
- TGI (SK-MEL-2 melanoma): 21.4 µM
- TGI (SK-MEL-28 melanoma): 24.3 µM
- TGI (SK-MEL-5 melanoma): 12.9 µM
- TGI (SK-OV-3 ovarian): 36.9 µM
- TGI (SN12C renal): 23.1 µM
- TGI (SNB-19 CNS): 22.6 µM
- TGI (SNB-75 CNS): 23.7 µM
- TGI (SNB-78 CNS): 72.4 µM
- TGI (SW-620 colon): 27.5 µM
- TGI (TK-10 renal): 7.05 µM
- TGI (U251 CNS): 19.3 µM
- TGI (UACC-257 melanoma): 15 µM
- TGI (UACC-62 melanoma): 14.8 µM
- TGI (UO-31 renal): 9.71 µM
